According to US20220160872A1, “Drug Adsorbed Highly Porous Activated Carbon for Enhanced Drug Delivery” (THE BOARD OF TRUSTEES OF THE UNIVERSITY OF ILLINOIS, priority 2019, published 2022):

Key:
HSV-1 (McKrae) = type: in vivo
HSV-1 = test: Prophylactic and therapeutic DECON treatment of HCEs with HSV-1 infection in vitro; type: cell-based; settings: prophylactically added
Description: Cell monolayer was washed twice with PBS before whole media with required HSV infection was added.
To comprehensively test the efficacy of drug release and resulting antiviral activity of DECON particles, a prophylactic and therapeutic model of treatment was used on HCEs followed by HSV-1 infection in vitro.
Flow cytometry was conducted on the samples at 24 hpi showing the extent of cells infected with HSV-1 GFP (see FIG. 8C). FIG. 8d provides representative immunoblots for samples showing HSV-1 gB protein in comparison with GAPDH for HSV-1 infected HCEs at 24 hpi.

HSV-2 (333 strain) = test: Murine model of vaginal HSV-2 infection; type: in vivo, BALB/c mice
Description: Naïve 4-week-old female BALB/c mice were purchased from Jackson Laboratory (Bar Harbor, USA) and housed in the university BRL for a period of one week for acclimatization before they were subcutaneously injected with 2 mg of medroxyprogesterone (Depo-Provera) per mice. On day 5 post injection, mice were intravaginally infected with 1×10^6 PFU HSV-2 (333 strain). Similar to the ocular model of infection, DECON was applied topically (intravaginally) on alternate days while ACV (50 mg/mL in PBS) was administered via an intraperitoneal injection. PBS was applied intravaginally as mock treatment for the control group. Vaginal swabs were collected using a Calgiswab (Calcium Alginate Mini-tip Urethro-Genital Swab, Puritan) dipped in OptiMEM (Gibco, USA). Images of the ano-genital region were taken on day 0 and day 7 post infection using a Carl Zeiss stereoscope at 7.5× magnification.
Experiments involving animals were performed under a UIC approved protocol ACC 14-091. The mice were monitored for weight loss and disease scores were recorded in a blinded fashion for 14 days. Sick mice were euthanized according to the IUCAC protocol followed by the collection of ocular/vaginal tissue and lymph nodes. Ocular wash and vaginal swabs were used to assess viral titers using a plaque assay.
With the success of topical ocular therapy with DECON, it was investigated whether this delivery platform was effective for vaginal HSV-2 infections as well. Naïve Balb/c mice were primed with medroxyprogestrone 5 days prior to intravaginal HSV-2 infection. Starting at day 1 post infection, mice were either treated with topical DECON or systemic ACV (5 mg/kg) by intraperitoneal injections […], DECON was administered intravaginally […]. The genital area was imaged using a stereoscope on days 0 and 7 to visualize the extent of damage done to the site of infection. […] This was observed by the phenotype of infection and analyzed by plaque assays from vaginal swabs. […] In the mock treated group, 60% of mice succumbed to death by day 14 post infection, while 20% of mice treated with systemic ACV and none of DECON treated mice succumbed to death (FIG. 5D).

| SMILES | mice succumbed to death (HSV-1 (McKrae); by day 15, topical treatment on alternate days) | viral replication / infection vs mock treated (HSV-1 (McKrae); topical, alternate days, ocular washes) | antiviral response (HSV-1) | mice succumbed to death (HSV-2 (333 strain); by day 14 post infection) [%] | inflammation of vaginal and anogenital area (HSV-2 (333 strain); compared to mock-treated mice) | viral titers, plaque assays from vaginal swabs (HSV-2 (333 strain); day 4 and day 7 post infection, DECON intravaginal, ACV 5 mg/kg intraperitoneal) | lymph node size (HSV-2 (333 strain); day 14 post infection) |
| --- | --- | --- | --- | --- | --- | --- | --- |
| O=c1[nH]c(=O)n([C@H]2C[C@H](O)[C@@H](CO)O2)cc1C(F)(F)F [TFT, trifluridine] | Up to 20% | did not show any significant reduction in viral replication |  |  |  |  |  |
| Nc1nc2c(ncn2COCCO)c(=O)[nH]1 [ACV, Acyclovir] |  |  | did not elicit a robust antiviral response | 20 | only slight inflammation | steady reduction in viral titers | little to no increase in size |
